Data from PMC3598492, “Cannabinoid receptor type 2 (CB2)-selective N-aryl-oxadiazolyl-propionamides: synthesis, radiolabelling, molecular modelling and biological evaluation” (Organic and Medicinal Chemistry Letters, 2012).
Like-named read-outs stand apart in the source and are kept apart here.

Key:
[1] = molecular target: T1, hCB2 (Homo sapiens, UniProt P34972); experiment: Competitive [3H]CP55,940 binding on membrane homogenates of hCB2-CHO cells; conditions: for Binding to hCB2 in words: hCB2-CHO; for Selectivity, pKi (CB2) – pKi (CB1): pKi = -log (Ki)
T1 construct: host or cells: CHO (hCB2-CHO), crude membrane homogenates
T1 sequence (P34972 whole entry): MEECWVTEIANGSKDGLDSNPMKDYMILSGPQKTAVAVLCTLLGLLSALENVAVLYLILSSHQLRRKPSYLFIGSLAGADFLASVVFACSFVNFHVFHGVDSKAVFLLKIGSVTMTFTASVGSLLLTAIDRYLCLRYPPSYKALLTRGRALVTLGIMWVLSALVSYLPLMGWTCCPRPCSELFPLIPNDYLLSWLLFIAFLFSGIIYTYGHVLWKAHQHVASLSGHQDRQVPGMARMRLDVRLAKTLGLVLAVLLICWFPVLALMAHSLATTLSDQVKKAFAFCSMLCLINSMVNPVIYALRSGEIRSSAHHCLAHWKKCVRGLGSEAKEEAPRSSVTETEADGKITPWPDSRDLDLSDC
Protocol: (§1) CHO cell lines stably transfected with human CB1 (hCB1-CHO; obtained from Euroscreen, Gosselies, Belgium) or human CB2 (hCB2-CHO; obtained from Paul L. Prather, Department of Pharmacology and Toxicology, College of Medicine, University of Arkansas for Medical Sciences, USA) were cultured in Ham's F12 medium or Dulbecco's modified Eagle's medium (DMEM) with 10% fetal calf serum, 100 IU/mL penicillin, 100 μg/mL streptomycin and 250 or 400 μg/mL of the selection antibiotic Geneticin (G418), respectively. The cells were cultured in a humidified atmosphere with 5% CO2 at 37°C. Confluent cell layers of 175-cm^2 flasks were scraped; cells were harvested by centrifugation (800 rpm, 3 min), counted by trypan blue staining, suspended in 200 μL of 50 mM tris(hydroxymethyl)aminomethane (TRIS; pH 7.4) at 4°C and stored at −32°C until the binding experiment.
(§2) Competitive binding experiments were performed with crude membrane homogenates obtained from hCB1-CHO or hCB2-CHO cells as described above. […] Incubations were terminated by rapid filtration through a GF-B glass fibre filter pre-incubated for 90 min at room temperature in freshly prepared 0.5% polyvinylpyrrolidone + 0.1% Tween 20 solution using a 48-well cell harvester (Brandel, Gaithersburg, MD, USA).
The corresponding inhibition constants (Ki) of test compounds were derived from the IC50 values using the Cheng-Prusoff equation [49]. All binding experiments were performed in triplicates, and data are given as mean values from independent experiments.

[2] = molecular target: T2, hCB1 (Homo sapiens, UniProt P21554); experiment: Competitive [3H]CP55,940 binding on membrane homogenates of hCB1-CHO cells
T2 construct: host or cells: CHO (hCB1-CHO), crude membrane homogenates
T2 sequence (P21554 whole entry): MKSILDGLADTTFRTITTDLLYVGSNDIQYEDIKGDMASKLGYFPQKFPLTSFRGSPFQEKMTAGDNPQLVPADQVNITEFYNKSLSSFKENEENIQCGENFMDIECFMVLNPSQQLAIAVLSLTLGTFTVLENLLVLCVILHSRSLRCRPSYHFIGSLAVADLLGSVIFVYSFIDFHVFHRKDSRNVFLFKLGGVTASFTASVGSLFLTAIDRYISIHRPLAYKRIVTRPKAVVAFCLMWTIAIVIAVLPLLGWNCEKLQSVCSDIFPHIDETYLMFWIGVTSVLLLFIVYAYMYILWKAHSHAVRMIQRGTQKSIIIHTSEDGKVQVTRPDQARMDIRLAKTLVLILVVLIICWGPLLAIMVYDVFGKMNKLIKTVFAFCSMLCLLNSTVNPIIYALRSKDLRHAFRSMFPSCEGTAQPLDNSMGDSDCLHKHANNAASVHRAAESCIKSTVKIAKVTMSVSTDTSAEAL
Protocol: as §1, §2
Binding data were analysed using GraphPad Prism version 2.01 (GraphPad Software, Inc., San Diego, CA, USA) by non-linear regression to provide estimates of the half maximal inhibitory concentration (IC50) values and the […]. […] The corresponding inhibition constants (Ki) of test compounds were derived from the IC50 values using the Cheng-Prusoff equation [49]. All binding experiments were performed in triplicates, and data are given as mean values from independent experiments.

[3] = molecular target: T3, CB2 receptors in mouse spleen tissue (Mus musculus, UniProt P47936); experiment: Autoradiographic displacement of [3H]CP55,940 on coronal mouse spleen sections; type: binding; conditions: for Displacement of the specific binding of 6 nM [3H]CP55,940: mouse spleen sections, HD regions
T3 construct: 12-μm-thick coronal sections obtained from the spleens of three animals; from tissue; host or cells: spleen sections of female CD-1 mice
T3 sequence (P47936 whole entry): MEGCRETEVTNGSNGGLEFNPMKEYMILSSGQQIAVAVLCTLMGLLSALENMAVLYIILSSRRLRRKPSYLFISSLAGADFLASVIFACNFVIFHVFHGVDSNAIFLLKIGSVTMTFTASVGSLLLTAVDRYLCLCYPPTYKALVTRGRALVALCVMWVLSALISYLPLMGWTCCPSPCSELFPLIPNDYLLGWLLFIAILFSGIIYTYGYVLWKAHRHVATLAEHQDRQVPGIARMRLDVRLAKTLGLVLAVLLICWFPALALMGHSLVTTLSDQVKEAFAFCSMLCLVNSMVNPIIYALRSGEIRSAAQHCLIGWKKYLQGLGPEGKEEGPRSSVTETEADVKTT
Protocol: Animal experiments were performed under procedures approved by the State of Saxony Animal Care and Use Committee and conducted in accordance with the German Law for the Protection of Animals. Female CD-1 mice (10 to 12 weeks old, 20 to 25 g), obtained from the Medizinisch-Experimentelles Zentrum der Universität Leipzig (Leipzig, Germany), were used for the experiments.
The animals were anesthetized and sacrificed, and their spleens were rapidly removed and frozen in isopentane at −35°C. The spleens were brought to −15°C in a cryostat (Microm International GmbH, Walldorf, Germany), and a series of 12-μm-thick coronal sections obtained from the spleens of three animals were collected in parallel on microscopic glass slides. The sections were dried at room temperature and stored at −35°C until they were processed for receptor binding autoradiography.
For autoradiographic experiments, the slides were brought to room temperature, dried in a stream of cold air, pre-incubated in a binding buffer (50 mM TRIS (pH 7.4) at 21°C, 5% BSA) for 15 min at room temperature and dried again in a stream of cold air. […] Samples were washed twice for 30 min at 4°C in 50 mM TRIS (pH 7.4) at 4°C, containing 1% BSA, dipped briefly in ice-cold deionized water (5 s), dried in a stream of cold air and exposed along with [^3H] standards (Amersham/GE Healthcare, Piscataway, NJ, USA) for 14 days to [^3H]-sensitive screen plates (Fuji Photo Film, Co. Ltd., Tokyo, Japan).
The image plates were analysed using a BAS-1800II system bioimaging analyser (Fuji Photo Film, Co. Ltd., Tokyo, Japan). Scan data were visualized and processed by computer-assisted microdensitometry (Aida version 2.31, Raytest Isotopenmessgeräte GmbH, Straubenhardt, Germany). Irregular regions of interest (ROIs) were drawn on selected areas of the spleen labelled as red pulp (low-density binding) and white pulp (high-density binding) according to Lynn and Herkenham and Massi et al..

[4] = read-out: Affinity (Ki) towards hCB2
[5] = read-out: Affinity (Ki) towards hCB1

| Compound | Binding to hCB2 in words [1] | Ki [1, 4] [µM] | other results |
| --- | --- | --- | --- |
| CC(C)(C)c1cc(NC(=O)CCc2nc(-c3ccc(Br)nc3)no2)no1 [Compound 1a, 3-(3-(6-Bromopyridin-3-yl)-1,2,4-oxadiazol-5-yl)-N-(5-tert-butylisoxazol-3-yl)propanamide] | high affinity | 0.0144 |  |
| CC(C)(C)c1cc(NC(=O)CCc2nc(-c3ccc(F)nc3)no2)no1 [Compound 1b, 3-(3-(6-Fluoropyridin-3-yl)-1,2,4-oxadiazol-5-yl)-N-(5-tert-butylisoxazol-3-yl)propanamide] | low affinity |  | Ki ([1]; hCB2 expressed in CHO cells, 0.5 nM [3H]CP55,940, Cheng-Prusoff, read-out: Affinity (Ki) towards hCB2): > 100 µM |
| N#Cc1cc(F)ccc1-c1noc(CCC(=O)Nc2cnc3ccccc3c2)n1 [Compound 2a, 3-(3-(2-Cyano-4-fluorophenyl)-1,2,4-oxadiazol-5-yl)-N-(quinolin-3-yl)propanamide] |  | 0.722 | Binding to hCB1 in words ([2]; hCB1-CHO): could not be observed; Fold lower hCB2 affinity ([1]; in comparison to 6a): approximately 100 fold |
| O=C(CCc1nc(-c2ccc(F)nc2)no1)Nc1cnc2ccccc2c1 [Compound 2b, 3-(3-(6-Fluoropyridin-3-yl)-1,2,4-oxadiazol-5-yl)-N-(quinolin-3-yl)propanamide] | low affinity | 2.29 | Binding to hCB1 in words ([2]; hCB1-CHO): could not be observed |
| O=C(CCc1nc(-c2ccc(Br)nc2)no1)Nc1cnc2ccccc2c1 [Compound 2c, 3-(3-(6-Bromopyridin-3-yl)-1,2,4-oxadiazol-5-yl)-N-(quinolin-3-yl)propanamide] | low affinity | > 100 | Binding to hCB1 in words ([2]; hCB1-CHO): could not be observed |
| CCn1ccc2cc(NC(=O)CCc3nc(-c4ccc(F)nc4)no3)ccc21 [Compound 3b, 3-(3-(6-Fluoropyridin-3-yl)-1,2,4-oxadiazol-5-yl)-N-(1-ethyl-1H-indol-5-yl)-propanamide] | low affinity | > 100 |  |
| O=C(CCc1nc(-c2ccc(F)cc2Br)no1)Nc1ccc2[nH]c3ccccc3c2c1 [Compound 4e, 3-(3-(2-Bromo-4-fluorophenyl)-1,2,4-oxadiazol-5-yl)-N-(9H-carbazol-3-yl)propanamide] | no binding | > 100 |  |
| Cn1c2ccccc2c2cc(NC(=O)CCc3nc(-c4ccc(F)cc4Br)no3)ccc21 [Compound 5e, 3-(3-(2-Bromo-4-fluorophenyl)-1,2,4-oxadiazol-5-yl)-N-(9-methyl-9H-carbazol-3-yl)propanamide] |  | 0.25 |  |
| CCn1c2ccccc2c2cc(NC(=O)CCc3nc(-c4ccc(F)nc4)no3)ccc21 [Compound 6b, 3-(3-(6-Fluoropyridin-3-yl)-1,2,4-oxadiazol-5-yl)-N-(9-ethyl-9H-carbazol-3-yl)propanamide] | low affinity | 0.135 | Ki [2, 5]: 1.56 µM; Selectivity, pKi (CB2) – pKi (CB1) ([1]; hCB2 versus hCB1): 1.06 |
| CCn1c2ccccc2c2cc(NC(=O)CCc3nc(-c4ccc(Br)nc4)no3)ccc21 [Compound 6c, 3-(3-(6-Bromopyridin-3-yl)-1,2,4-oxadiazol-5-yl)-N-(9-ethyl-9H-carbazol-3-yl)propanamide] | low affinity | 1.92 |  |
| CCn1c2ccccc2c2cc(NC(=O)CCc3nc(-c4ccc([N+](=O)[O-])cc4F)no3)ccc21 [Compound 6d, 3-(3-(2-Fluoro-4-nitrophenyl)-1,2,4-oxadiazol-5-yl)-N-(9-ethyl-9H-carbazol-3-yl)propanamide] |  |  | Ki [2, 5]: 7.47 µM; Ki [1]: 0.0125 µM; Selectivity, pKi (CB2) – pKi (CB1) ([1]; hCB2 versus hCB1): 2.78 |
| CCn1c2ccccc2c2cc(NC(=O)CCc3nc(-c4ccc(F)cc4Br)no3)ccc21 [Compound 6e, 3-(3-(2-Bromo-4-fluorophenyl)-1,2,4-oxadiazol-5-yl)-N-(9-ethyl-9H-carbazol-3-yl)propanamide] |  |  | Ki ([2]; hCB1-CHO, read-out: Ki hCB1): > 1 µM; Selectivity over hCB1 ([1]; hCB2 versus hCB1): more than 1,000 fold; receptor occupancy at 1 µM ([3]; read-out: Fractional occupancy of [3H]CP55,940 binding sites calculated by Gaddum equation): 97% |
| CCn1c2ccccc2c2cc(NC(=O)CCc3nc(-c4ccc([N+](=O)[O-])cc4C#N)no3)ccc21 [Compound 6f, 3-(3-(2-Cyano-4-nitrophenyl)-1,2,4-oxadiazol-5-yl)-N-(9-ethyl-9H-carbazol-3-yl)propanamide] |  |  | Ki [1]: 0.00589 µM |
| CCn1c2ccccc2c2cc(NC(=O)CCc3nc(-c4ccc([N+](=O)[O-])cc4Br)no3)ccc21 [Compound 6g, 3-(3-(2-Bromo-4-nitrophenyl)-1,2,4-oxadiazol-5-yl)-N-(9-ethyl-9H-carbazol-3-yl)propanamide] |  |  | Ki [2, 5]: 0.397 µM; Ki [1]: 0.00238 µM; Selectivity, pKi (CB2) – pKi (CB1) ([1]; hCB2 versus hCB1): 2.22 |
| CCn1c2ccccc2c2cc(NC(=O)CCc3nc(-c4ccc(N)cc4F)no3)ccc21 [Compound 6i, 3-(3-(4-Amino-2-fluorophenyl)-1,2,4-oxadiazol-5-yl)-N-(9-ethyl-9H-carbazol-3-yl)propanamide] |  | > 100 |  |
| CCn1c2ccccc2c2cc(NC(=O)CCc3nc(-c4ccc(F)cc4O)no3)ccc21 [Compound 6j, 3-(3-(4-Fluoro-2-hydroxyphenyl)-1,2,4-oxadiazol-5-yl)-N-(9-ethyl-9H-carbazol-3-yl)propanamide] |  | 5.71 |  |
| CCn1c2ccccc2c2cc(NC(=O)CCc3nc(-c4ccc(F)cc4OCCF)no3)ccc21 [Compound 6k, 3-(3-(4-Fluoro-2-(2-fluoroethoxy)phenyl)-1,2,4-oxadiazol-5-yl)-N-(9-ethyl-9H-carbazol-3-yl)-propanamide] |  | 3.19 |  |
| CCn1c2ccccc2c2cc(NC(=O)CCc3nc(-c4ccc(F)cc4OC)no3)ccc21 [Compound 6l, 3-(3-(4-Fluoro-2-methoxyphenyl)-1,2,4-oxadiazol-5-yl)-N-(9-ethyl-9H-carbazol-3-yl)-propanamide] |  | 0.223 |  |
| CCn1c2ccccc2c2cc(NC(=O)CCc3nc(-c4ccc(OC)cc4Br)no3)ccc21 [Compound 6m, 3-(3-(2-Bromo-4-methoxyphenyl)-1,2,4-oxadiazol-5-yl)-N-(9-ethyl-9H-carbazol-3-yl)propanamide] |  | > 100 |  |
| O=C(CCc1nc(-c2ccc(F)cc2F)no1)Nc1cn(Cc2ccccc2)c2ccccc12 [Compound 7h, 3-(3-(2,4-Difluorophenyl)-1,2,4-oxadiazol-5-yl)-N-(1-benzyl-1H-indol-3-yl)-propanamide] | lost | > 100 | Binding to hCB1 in words ([2]; hCB1-CHO): Weak affinity; Ki [2, 5]: 6.01 µM |
| Cc1c(C(=O)NN2CCCCC2)nn(-c2ccc(Cl)cc2Cl)c1-c1ccc(Cl)cc1 [SR141716A] |  |  | Specific CP55,940 binding remaining ([3]; 1 μM compound, 6 nM [3H]CP55,940, mouse spleen): 94%; Displacement of the specific binding of 6 nM [3H]CP55,940 ([3]; 1 μM compound): nearly no displacement |
| CCCCCCC(C)(C)c1ccc([C@@H]2C[C@H](O)CC[C@H]2CCCO)c(O)c1 [^3H]CP55,940] |  |  | Density of specific binding sites ([3]; 6 nM [3H]CP55,940, mouse spleen): 150 ± 25 fmol/mg wet weight; Specific binding as share of total binding ([3]; mouse spleen autoradiography): approximately 90% |
| SR144528 |  |  | Displacement of the specific binding of 6 nM [3H]CP55,940 ([3]; 1 μM compound): 78% |
